From the supplement of paper PMC5908809

How the values were obtained:
NK-YS (IL-2 2.5 ng/mL) [1] = test: drug sensitivity score (DSS) (DSS units); higher = more sensitive; extreme values may be limits of the assay; conditions: 72 h
KHYG-1 (IL-2 2.5 ng/mL) [2] = test: as above; conditions: 72 h
NK-92 (IL-2 2.5 ng/mL) [3] = test: as above; conditions: 72 h
[4] = system: normal primary NK cells, pool 2 (3 donors) (IL-2 2.5 ng/mL); test: as above; conditions: 72 h
[5] = system: normal primary NK cells, pool 1 (3 donors), resting (IL-2 0 ng/mL); test: as above; conditions: 72 h
YT (IL-2 2.5 ng/mL) [6] = test: as above; conditions: 72 h
DERL-7 (IL-2 2.5 ng/mL) [7] = test: as above; conditions: 72 h
NKL (IL-2 2.5 ng/mL) [8] = test: as above; conditions: 72 h
[9] = system: normal primary NK cells, pool 1 (3 donors) (IL-2 2.5 ng/mL); test: as above; conditions: 72 h
IMC-1 (IL-2 20 ng/mL) [10] = test: as above; conditions: 72 h
SNK-6 (IL-2 2.5 ng/mL) [11] = test: as above; conditions: 72 h
KAI3 (IL-2 2.5 ng/mL) [12] = test: as above; conditions: 72 h
[13] = system: normal primary NK cells, pool 3 (3 donors) (IL-2 2.5 ng/mL); test: as above; conditions: 72 h
[14] = system: normal NK cells expanded with K562-aAPC; test: as above; conditions: 72 h; IL-2 2.5 ng/mL
Experimental: (§1)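 Drug sensitivity and resistance testing on K562-aAPC-expanded normal NK cells: 5 concentrations (10-fold steps over a 10,000-fold range), 72 h at 37 °C, viability by CellTiter-Glo normalised to DMSO and benzethonium chloride controls; DSS from the fitted curve.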

[15] = system: normal NK cells expanded with K562-aAPC; test: percent inhibition of viability; higher = more inhibition; conditions: 72 h, IL-2 2.5 ng/mL
Experimental: as §1

NK-YS (IL-2 2.5 ng/mL) [16] = test: as above; conditions: 72 h
KHYG-1 (IL-2 2.5 ng/mL) [17] = test: as above; conditions: 72 h
NK-92 (IL-2 2.5 ng/mL) [18] = test: as above; conditions: 72 h
[19] = system: normal primary NK cells, pool 2 (3 donors) (IL-2 2.5 ng/mL); test: as above; conditions: 72 h
[20] = system: normal primary NK cells, pool 1 (3 donors), resting (IL-2 0 ng/mL); test: as above; conditions: 72 h
YT (IL-2 2.5 ng/mL) [21] = test: as above; conditions: 72 h
DERL-7 (IL-2 2.5 ng/mL) [22] = test: as above; conditions: 72 h
NKL (IL-2 2.5 ng/mL) [23] = test: as above; conditions: 72 h
[24] = system: normal primary NK cells, pool 1 (3 donors) (IL-2 2.5 ng/mL); test: as above; conditions: 72 h
IMC-1 (IL-2 20 ng/mL) [25] = test: as above; conditions: 72 h
SNK-6 (IL-2 2.5 ng/mL) [26] = test: as above; conditions: 72 h
KAI3 (IL-2 2.5 ng/mL) [27] = test: as above; conditions: 72 h
[28] = system: normal primary NK cells, pool 3 (3 donors) (IL-2 2.5 ng/mL); test: as above; conditions: 72 h

CC[C@H](CC#N)OC(=O)N[C@@H](C)c1cccc(NC(=O)Nc2ccc(-c3cnco3)c(OC)c2)c1 [AVN944] (max concentration tested 10000 nM)
Conditions	drug sensitivity score
DERL-7 (IL-2 2.5 ng/mL) [7]	22.3
IMC-1 (IL-2 20 ng/mL) [10]	13.5
KAI3 (IL-2 2.5 ng/mL) [12]	23.1
KHYG-1 (IL-2 2.5 ng/mL) [2]	23.1
NK-92 (IL-2 2.5 ng/mL) [3]	21.5
NK-YS (IL-2 2.5 ng/mL) [1]	22.9
NKL (IL-2 2.5 ng/mL) [8]	19.2
SNK-6 (IL-2 2.5 ng/mL) [11]	24.3
YT (IL-2 2.5 ng/mL) [6]	18.9
[4]	0.8
[5]	4.7
[9]	2.1
[13]	1.47
[14]	9.68

percent inhibition of viability [%]
Conditions	1 nM	10 nM	100 nM	1000 nM	10000 nM
DERL-7 (IL-2 2.5 ng/mL) [22]	1.82	-0.51	46.2	89.3	94.2
IMC-1 (IL-2 20 ng/mL) [25]	-3.38	0.07	-49.7	74.7	93.8
KAI3 (IL-2 2.5 ng/mL) [27]	3.06	5.82	42.7	101	97.7
KHYG-1 (IL-2 2.5 ng/mL) [17]	-0.31	1.95	46.9	96.4	96.2
NK-92 (IL-2 2.5 ng/mL) [18]	-6.77	-7.92	21.9	101	94.4
NK-YS (IL-2 2.5 ng/mL) [16]	1.24	-1.29	45.5	94.6	94
NKL (IL-2 2.5 ng/mL) [23]	-10.6	-12.7	32.8	81.2	72.3
SNK-6 (IL-2 2.5 ng/mL) [26]	6.47	13.1	56.5	91	96.5
YT (IL-2 2.5 ng/mL) [21]	1.64	0.89	25.8	83.2	83.1
[15]	-4.47	-3.33	15.6	41.6	39.1
[19]	-12.8	-4.58	1.01	5.56	16.6
[20]	-10.3	-2.43	27.4	7.53	62.7
[24]	-6.01	-11.6	1.98	6.68	27.3
[28]	-8.77	-6.21	4.2	12.5	18.4

Cc1c(N)nc([C@H](CC(N)=O)NC[C@H](N)C(N)=O)nc1C(=O)N[C@H](C(=O)N[C@H](C)[C@@H](O)[C@H](C)C(=O)N[C@H](C(=O)NCCc1nc(-c2nc(C(=O)NCCC[S+](C)C)cs2)cs1)[C@@H](C)O)[C@@H](OC1OC(CO)C(O)C(O)C1OC1OC(CO)C(O)C(OC(N)=O)C1O)c1cnc[nH]1 (stereo partly drawn) [Bleomycin] (max concentration tested 10000 nM)
Conditions	drug sensitivity score
DERL-7 (IL-2 2.5 ng/mL) [7]	8.38
IMC-1 (IL-2 20 ng/mL) [10]	5.31
KAI3 (IL-2 2.5 ng/mL) [12]	11.2
KHYG-1 (IL-2 2.5 ng/mL) [2]	4.93
NK-92 (IL-2 2.5 ng/mL) [3]	13.2
NK-YS (IL-2 2.5 ng/mL) [1]	11.1
NKL (IL-2 2.5 ng/mL) [8]	10.6
SNK-6 (IL-2 2.5 ng/mL) [11]	27.6
YT (IL-2 2.5 ng/mL) [6]	4.81
[4]	7.05
[5]	4.07
[9]	3.94
[13]	6.94
[14]	7.53

percent inhibition of viability [%]
Conditions	1 nM	10 nM	100 nM	1000 nM	10000 nM
DERL-7 (IL-2 2.5 ng/mL) [22]	0.04	-2.28	1.21	29.5	78.2
IMC-1 (IL-2 20 ng/mL) [25]	-0.57	-6.19	5.49	17.2	56.8
KAI3 (IL-2 2.5 ng/mL) [27]	-4.06	-8.69	8.99	52.9	77
KHYG-1 (IL-2 2.5 ng/mL) [17]	-3.86	-5.7	-1.32	7.38	67.6
NK-92 (IL-2 2.5 ng/mL) [18]	-18	-20.7	13.2	60.3	99
NK-YS (IL-2 2.5 ng/mL) [16]	-1.93	-5.64	6.84	52.8	81.4
NKL (IL-2 2.5 ng/mL) [23]	-14.6	-9.35	-1.37	39.7	96.6
SNK-6 (IL-2 2.5 ng/mL) [26]	9.29	19.8	68.8	97	101
YT (IL-2 2.5 ng/mL) [21]	-2.74	-1.16	1.84	13.3	51.6
[15]	3.15	-1.5	7.63	34.1	62.5
[19]	-11.5	-5.49	-1.39	19.4	73.8
[20]	-6.18	-0.23	-9.89	-6.49	82
[24]	-8.98	2.35	-2.19	6.69	52.9
[28]	-10.1	-1.71	12.2	27.9	68.2
